# Results from ChEMBL document CHEMBL3301555, “MMV Malaria Box screening in pLDH viability assay against Plasmodium falciparum gametocytes”.
# Columns and labels:
# Plasmodium falciparum [1] = experiment: (§1) MMV: Measure of pLDH activity as indication of parasite viability. Gametocytogenesis of 3D7 Plasmodium falciparum strain was induced in vitro and asexual parasites were depleted with N-acetylglucosamine. Gametocytes were treated with dihydroartemisinin, epoxomicin, methylene blue, primaquine, puromycin or chloroquine in 96-well plates and the pLDH activity was evaluated using a modified Makler protocol. Mosquito infectivity was measured by the standard membrane feeding assay.; format: functional; set-up: concentration or dose not given beside the values
# Plasmodium falciparum [2] = experiment: as §1, with “assay. The IC50 value was extrapolated as the concentration that induced a 50% inhibition of gametocyte viability.” for “assay.”; format: functional, organism-based
SMILES,Growth Inhibition (Plasmodium falciparum [1]) [%],IC50 (Plasmodium falciparum [2]) [nM]
CN1CCN(c2ccc(Nc3c4ccccc4nc4ccccc34)cc2)CC1,62.7432,732
O=C(Nc1ccc(Cl)c(Cl)c1)Nc1ccc(Cl)c(Cl)c1,10.3704,
COc1ccc(Nc2nc(N/N=C/c3ccc(O)cc3)nc(Nc3ccc([N+](=O)[O-])cc3)n2)cc1,24.1364,
CN(C)CCCNc1c2ccccc2nc2ccccc12,9.2618,3140
COc1ccc(-c2cc3c(nn2)-c2ccccc2C3=O)cc1,49.5345,5010
N=c1n(CCN2CCCCC2)c2ccccc2n1CC(=O)c1ccc(Cl)c(Cl)c1,13.8938,
Nc1nc(Nc2cccc(F)c2)nc2ccccc12,18.202,
COc1ccc(/C=C2/SC(=Nc3ccccc3)NC2=O)cc1,42.24,
COc1ccc(-c2nc(N3CCN(C(=O)C4CCCCC4)CC3)c3c4c(sc3n2)CCCC4)cc1,-0.9006,
O=C(NC1CCN(Cc2ccccc2)CC1)c1cc2nc(-c3ccc(Cl)s3)cc(C(F)(F)F)n2n1,6.5116,
Cc1sc(NC(=O)c2ccccc2)c(C(c2cccs2)N2CCN(c3ccccc3)CC2)c1C (stereo not drawn),0.692,
Cc1sc(NC(=O)c2ccco2)c(C(c2cccnc2)N2CCC(Cc3ccccc3)CC2)c1C (stereo not drawn),4.6056,
COc1cc(C(=O)Nc2nc3c(cc4c5c(cccc53)CC4)s2)cc(OC)c1OC,2.6754,
COc1ccc(CCN2C(=O)c3[nH]nc(-c4cc(Cl)c(C)cc4O)c3C2c2ccccc2F)cc1 (stereo not drawn),16.338,
N#Cc1nc(Cc2cccc3ccccc23)oc1N1CCN(C(c2ccccc2)c2ccccc2)CC1,-13.1388,
O=C(NNc1cc(N2CCCC2)nc(N2CCCC2)n1)c1ccccc1,2.419,
CC(C)(C)CC(C)(C)NCC(O)COc1ccc(Cl)cc1Cl (stereo not drawn),54.9615,5620
Cc1cccc(-n2ncc3c(O)nc(-n4nc(C)cc4NC(=O)c4cc5ccccc5o4)nc32)c1,60.253,1620
COC(=O)c1ccc(Cl)c2c1C1C=CCC1C(c1cccc3ccccc13)N2 (stereo not drawn),-3.8852,
O=C(CCc1ccccc1)c1ccccc1OCC(O)CN1CCCCC1 (stereo not drawn),24.7266,
Cc1ccc(Nc2nc(-c3ccccn3)cs2)cc1,62.3104,1380
OC1=C2C(=Nc3ccccc3SC2c2ccccc2)c2ccccc21 (stereo not drawn),34.196,
Cl.N=c1n(CCN2CCCCC2)c2ccccc2n1CC(O)c1cccc(Br)c1 (stereo not drawn),59.1366,3930

SMILES,Growth Inhibition (Plasmodium falciparum [1]) [%],IC50 (Plasmodium falciparum [2]) [nM]
COc1cc(C(=O)Nc2ccc(-c3nc4ccccc4[nH]3)cc2)cc(OC)c1OC,13.7592,
CCOc1ccc(N2C(N)=NC(N)=NC2(C)C)cc1.Cl,-4.3826,
COc1cccc(Nc2nc(N)c3ccccc3n2)c1.Cl,17.598,
Cc1ccc(C(=O)c2oc3ccc4c(C)cc(=O)oc4c3c2C)cc1,1.1304,
COc1cccc(NC(=O)[C@H](C(C)C)n2c(=O)[nH]c3ccccc3c2=O)c1,63.4258,2750
CCCCCCc1cc2cc(-c3csc(C=Cc4ccccc4)n3)c(=O)oc2cc1O,20.6338,
CN(C)CCCNCc1ccc(-c2ccc(F)c(Cl)c2)o1.Cl,63.9166,2210
O=C(CCl)NCCOc1ccc(Cl)cc1Cl,8.2288,
Oc1ccc(-c2nc(-c3ccc4oc5ccc(-c6[nH]c(-c7ccc(O)cc7)nc6-c6ccccc6)cc5c4c3)c(-c3ccccc3)[nH]2)cc1,21.6376,
Cc1sc2ncnc(Sc3nc4ccccc4[nH]3)c2c1C,79.0368,2640
COc1ccc(C(=O)NC(c2ccc(Cl)cc2Cl)c2cc(Cl)c3cccnc3c2O)cc1 (stereo not drawn),50.4754,3810
O=C(NC(c1ccccc1)c1ccc2cccnc2c1O)c1ccccc1 (stereo not drawn),59.5194,2650
CCCCNc1nc(NC(C)(C)C)nc(NC(C)(C)C)n1,40.1594,
Cl.c1ccc2c(NCCCCCCNc3c4c(nc5ccccc35)CCCC4)c3c(nc2c1)CCCC3,77.595,2390
COc1ccc(CNC(=O)c2cc3c(=O)n4ccccc4nc3n(CCc3ccccc3)c2=N)cc1,29.2402,
CCN(CC)CCn1c(=N)n(CC(O)c2ccc(Cl)c(Cl)c2)c2ccccc21.Cl (stereo not drawn),75.2902,2080
O=C(NCCCN1CCC(N2CCCCC2)CC1)C1=Cc2cc(Br)ccc2OC1,57.2548,1440
COc1ccc(CCn2c(=N)c(C(=O)NCc3cccnc3)cc3c(=O)n4cccc(C)c4nc32)cc1,4.0678,
CC(=O)c1sc(NC(=O)Nc2ccc(C)cc2C)nc1C,12.9136,
Cl.Cn1c(=O)n(C)c2cc(CNCCNc3ccnc4cc(Cl)ccc34)ccc21,35.6028,
Cn1c(C(=O)c2cccc3ccccc23)nc2ccccc21,-3.612,
CCOc1ccc2nc(C)cc(Nc3ccc(N(C)C)cc3)c2c1.Cl,13.9954,
COc1ccc(Nc2cc(C)nc(NCc3ccccc3)n2)cc1,8.4962,

SMILES,Growth Inhibition (Plasmodium falciparum [1]) [%],IC50 (Plasmodium falciparum [2]) [nM]
COc1ccc(C=C2SC(Nc3ccc(F)cc3)=NC2=O)c(OC)c1,32.1464,
Oc1ccc2ccccc2c1CNc1nc2ccccc2[nH]1,8.4186,
O=C(Nc1ccc(-c2nc3ccccc3[nH]2)cc1)c1ccc(Cl)c(Cl)c1,11.2736,
COc1ccc(C2NCCc3c2[nH]c2ccccc32)cc1CN1CCN(c2ccc(F)cc2)CC1.Cl (stereo not drawn),75.07,3410
O=C1c2ccc3c4c(ccc(c24)C(=O)N1CCCCO)C(=O)N(CCCCO)C3=O,33.201,
O=C(Nc1ccc(-c2nc3cc(NC(=O)c4ccc(Cl)cc4)ccc3[nH]2)cc1)c1ccc(Cl)cc1,18.844,
OCCNc1nc(Nc2ccc(Cl)c(Cl)c2)nc2ccccc12,18.8816,
Nc1ccc(-c2nc3cc(Oc4ccc(Oc5ccc6[nH]c(-c7ccc(N)cc7)nc6c5)cc4)ccc3[nH]2)cc1,21.5644,
CCOC(=O)c1cnc2ccc(OC)cc2c1Nc1ccc(N2CCN(C)CC2)cc1,5.5888,
Cc1cc(N(C)C)nc(Nc2ccc(NC(=O)Nc3ccccc3)cc2)n1,16.1034,
Cl.Clc1cc(Br)ccc1-c1ccc(CNCC2CCNCC2)o1,86.2708,407
Cc1ccc2cc3c(N)c4c(C)ccc(C)c4nc3nc2c1,80.372,2720
COc1ccccc1C(=O)ON=C(N)Cc1cccc2ccccc12,8.274,
CC(C)CCNCC(O)Cn1c2ccccc2c2ccccc21.Cl (stereo not drawn),62.6796,2830
CN1C=C(c2ccc3ccccc3n2)C(c2c[nH]c3ccccc23)c2ccccc21 (stereo not drawn),12.6514,
COc1ccccc1NC1=C(N2CCCCC2)C(=O)c2ccccc2C1=O,50.0502,236
COc1cc(-c2nc(-c3ccccc3)c(-c3ccccc3)[nH]2)cc(OC)c1O,13.9122,
Cc1ccc(Nc2nc(N)c3ccccc3n2)cc1Cl,23.2734,
Cc1cc(C)c2nc(N3CCC(C(=O)NCCCN4CCC(N5CCCCC5)CC4)CC3)sc2c1,59.2216,1930
CCc1ccc(CNCC(O)c2ccccc2)cc1.Cl (stereo not drawn),26.7,
COc1cccc(C(=O)NC(c2ccc(C)cc2)c2cc(Cl)c3cccnc3c2O)c1 (stereo not drawn),50.8652,3090
CC(C)OCc1cc(CN2CCN(c3cccc(Cl)c3)CC2)c(O)c2ncccc12,56.857,3280
CSc1ccccc1C(=O)Nc1nc(-c2ccccn2)cs1,29.8315,4610

SMILES,Growth Inhibition (Plasmodium falciparum [1]) [%],IC50 (Plasmodium falciparum [2]) [nM]
Br.CCn1c2c(c(=N)c3c1CCC3)CCCC2,-4.7115,
CCCOCc1cc(CN2CCN(c3cccc(Cl)c3)CC2)c(O)c2ncccc12,80.5,3800
COc1cc(CNCCc2ccc(Cl)cc2)cc(OC)c1O,17.1102,
Cc1ccc2c(C)nc(Nc3nc(C)cc(-c4ccccc4)n3)nc2c1,-3.9148,
CCOc1ccc(Nc2ccnc3cc(Cl)ccc23)cc1,2.6298,
Oc1c(CN2CCN(c3ccccc3F)CC2)cc(Br)c2cccnc12,75.8386,1900
Oc1ccc(Br)cc1CN1CCN(Cc2ccc(Cl)cc2)CC1,44.4912,
CCCc1c(C)nc2ccc(Br)cc2c1O,51.0245,8900
CCOc1ccc2nc(C)cc(Nc3ccc(Br)cc3)c2c1,-8.7645,
CC1=C(CC(=O)c2cccc([N+](=O)[O-])c2)C(=O)c2ccccc2C1=O,70.075,902
COc1cc2c3cc1Oc1c(OC)c(OC)cc4c1C(Cc1ccc(O)c(c1)Oc1ccc(cc1)CC3N(C)CC2)N(C)CC4.Cl (stereo not drawn),37.697,
Br.Cc1ccc(C)c(-c2csc(Nc3ccc(C)c(C)c3)n2)c1,-6.2508,
CN(C)c1ccc(N=Cc2ccc(N3CCOCC3)cc2)cc1,78.9978,4160
CCOC(=O)c1cnc2ccc(OC)cc2c1NCc1ccccc1,11.9674,
CCCn1c(=N)c(C(=O)NC2CCCCC2)cc2c(=O)n3cccc(C)c3nc21,2.4486,
CCOC(=O)C1=CN(C)C=C(C(=O)OCC)C1c1cc(Br)c(OCC)c(OC)c1,20.4206,
CC(C)(C)c1ccc(C2CC3=Nc4ccccc4N(C(=O)c4ccccc4Cl)C(c4ccc(F)cc4)C3=C(O)C2)cc1 (stereo not drawn),12.8628,
CN1CCN(c2nc(Nc3ccc(O)cc3)nc3ccccc23)CC1.Cl,11.7422,
Nc1ccn([C@@H]2O[C@H](CO)[C@@H](O)[C@H]2O)c(=O)n1 [CYTIDINE],13.5248,
O=C(Nc1cccc(C2=NCCN2)c1)Nc1cccc(C2=NCCN2)c1 [IMIDOCARB],24.1816,
